These results are taken from the NIST ThermoML archive (doi:10.1021/acs.jced.5b00932).

By mass density is commonly meant the mass of a sample divided by its volume.

The series in a line: wn = mass fraction of the nth substance listed. As to conditions: 298.15 K, 101 kPa, Liquid, Pycnometric method.

Numbers after ± are expanded uncertainties.

Consider `[Cl][Al]([Cl])[Cl]` [aluminum chloride] + O, for which, for the setting “w1 = 0.3108”, the mass density came to 1314.6 ± 2.2 kg/m3.
In the case of `[Ca+2].[Cl-].[Cl-]` [calcium chloride] + O, the mass density (w1 = 0.4647) was determined as 1456.1 ± 2.3 kg/m3.
With `[Cl][Fe]([Cl])[Cl]` [ferric chloride] + O, the mass density (w1 = 0.5069) is given as 1521.5 ± 3.3 kg/m3.
